Source: ChEMBL document CHEMBL1201861, “Genomics of Drug Sensitity in Cancer screening data, Wellcome Trust Sanger Institute”
Counter-ions that a name gives are not always drawn.

Assays:
COLO-741 = assay: cells; assay type: functional, cell-based, Homo sapiens; details: Homo sapiens, COLO-741
Description: SANGER: Inhibition of human COLO-741 cell growth in a cell viability assay.

DMS-273 = assay: cells; assay type: functional, cell-based, Homo sapiens; details: Homo sapiens, DMS-273
Description: SANGER: Inhibition of human DMS-273 cell growth in a cell viability assay.

GCT = assay: cells; assay type: functional, cell-based, Homo sapiens; details: Homo sapiens, GCT;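 also: GCT cell line proliferation inhibition, read out with a cell viability assay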
Description: SANGER: Inhibition of human GCT cell growth in a cell viability assay.

H4 = assay: cells; assay type: functional, cell-based, Homo sapiens; details: Homo sapiens, H4
Description: SANGER: Inhibition of human H4 cell growth in a cell viability assay.

HCC1419 = assay: cells; assay type: functional, cell-based, Homo sapiens; details: Homo sapiens, HCC1419;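 also: growth inhibition of human HCC1419 cells, read out as cell viability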
Description: SANGER: Inhibition of human HCC1419 cell growth in a cell viability assay.

HCC1569 = assay: cells; assay type: functional, cell-based, Homo sapiens; details: Homo sapiens, HCC1569;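 also: growth inhibition of human HCC1569 cells, read out with a cell viability assay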
Description: SANGER: Inhibition of human HCC1569 cell growth in a cell viability assay.

HCC1954 = assay: cells; assay type: functional, cell-based, Homo sapiens; details: Homo sapiens, HCC1954;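 also: growth inhibition of human HCC1954 cells, read out with a cell viability assay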
Description: SANGER: Inhibition of human HCC1954 cell growth in a cell viability assay.

HSC-2 = assay: cells; assay type: functional, cell-based, Homo sapiens; details: Homo sapiens, HSC-2;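 also: growth inhibition of human HSC-2 cells, read out by a cell viability assay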
Description: SANGER: Inhibition of human HSC-2 cell growth in a cell viability assay.

IMR-5 = assay: cells; assay type: functional, cell-based, Homo sapiens; details: Homo sapiens, IMR-5;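 also: growth inhibition of human IMR-5 cells, read out with a cell viability assay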
Description: SANGER: Inhibition of human IMR-5 cell growth in a cell viability assay.

KARPAS-422 = assay: cells; assay type: functional, cell-based, Homo sapiens; details: Homo sapiens, KARPAS-422
Description: SANGER: Inhibition of human KARPAS-422 cell growth in a cell viability assay.

KYSE-150 cell line = assay: cells; assay type: functional, cell-based, Homo sapiens; details: Homo sapiens, KYSE-150;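 also: growth inhibition of human KYSE-150 cells, read out with a cell viability assay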
Description: SANGER: Inhibition of human KYSE-150 cell growth in a cell viability assay.

KYSE-410 = assay: cells; assay type: functional, cell-based, Homo sapiens; details: Homo sapiens, KYSE-410;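 also: growth inhibition of KYSE-410 cells, measured through a cell viability readout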
Description: SANGER: Inhibition of human KYSE-410 cell growth in a cell viability assay.

MDA-MB-361 = assay: cells; assay type: functional, cell-based, Homo sapiens; details: Homo sapiens, MDA-MB-361
MKN-28 = assay: cells; assay type: functional, cell-based, Homo sapiens; details: Homo sapiens, MKN-28;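 also: cell viability assay read-out, IC50 reflects suppression of growth of human MKN-28 cells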
Description: SANGER: Inhibition of human MKN28 cell growth in a cell viability assay.

NCI-H2342 = assay: cells; assay type: functional, cell-based, Homo sapiens; details: Homo sapiens, NCI-H2342;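 also: growth inhibition of the cancer cell line, determined with a cell viability assay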
Description: SANGER: Inhibition of human NCI-H2342 cell growth in a cell viability assay.

NCI-H28 = assay: cells; assay type: functional, cell-based, Homo sapiens; details: Homo sapiens, NCI-H28;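 also: growth inhibition of human NCI-H28 cells, read out as cell viability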
Description: SANGER: Inhibition of human NCI-H28 cell growth in a cell viability assay.

NCI-H524 = assay: cells; assay type: functional, cell-based, Homo sapiens; details: Homo sapiens, NCI-H524;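 also: growth inhibition of human NCI-H524 cells, read out through a cell viability assay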
Description: SANGER: Inhibition of human NCI-H524 cell growth in a cell viability assay.

NCI-H661 = assay: cells; assay type: functional, cell-based, Homo sapiens; details: Homo sapiens, NCI-H661;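 also: cell viability assay read-out, IC50 being the concentration that inhibits growth of the cells by half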
Description: SANGER: Inhibition of human NCI-H661 cell growth in a cell viability assay.

NCI-H719 = assay: cells; assay type: functional, cell-based, Homo sapiens; details: Homo sapiens, NCI-H719;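 also: growth inhibition of the cultured cell line, read out with a viability assay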
Description: SANGER: Inhibition of human NCI-H719 cell growth in a cell viability assay.

NCI-H889 = assay: cells; assay type: functional, cell-based, Homo sapiens; details: Homo sapiens, NCI-H889;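 also: cell growth inhibition of the cell line, read out with a viability assay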
Description: SANGER: Inhibition of human NCI-H889 cell growth in a cell viability assay.

OAW-42 = assay: cells; assay type: functional, cell-based, Homo sapiens; details: Homo sapiens, OAW-42;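 also: growth inhibition of OAW-42 cells, read out with a cell viability assay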
Description: SANGER: Inhibition of human OAW-42 cell growth in a cell viability assay.

OVCAR-8 = assay: cells; assay type: functional, cell-based, Homo sapiens; details: Homo sapiens, OVCAR-8;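 also: growth inhibition of human OVCAR-8 cells, read out by a cell viability assay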
Description: SANGER: Inhibition of human OVCAR-8 cell growth in a cell viability assay.

RERF-LC-MS = assay: cells; assay type: functional, cell-based, Homo sapiens; details: Homo sapiens, RERF-LC-MS;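 also: growth inhibition of human RERF-LC-MS cells, read out by a cell viability assay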
Description: SANGER: Inhibition of human RERF-LC-MS cell growth in a cell viability assay.

RMG-I = assay: cells; assay type: functional, cell-based, Homo sapiens; details: Homo sapiens, RMG-I;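 also: growth inhibition of human RMG-I cells, read out with a cell viability assay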
Description: SANGER: Inhibition of human RMG-I cell growth in a cell viability assay.

RPMI-2650 = assay: cells; assay type: functional, cell-based, Homo sapiens; details: Homo sapiens, RPMI-2650
Description: SANGER: Inhibition of human RPMI-2650 cell growth in a cell viability assay.

RT-112 = assay: cells; assay type: functional, cell-based, Homo sapiens; details: Homo sapiens, RT-112
Description: SANGER: Inhibition of human RT-112 cell growth in a cell viability assay.

RVH-421 = assay: cells; assay type: functional, cell-based, Homo sapiens; details: Homo sapiens, RVH-421
Description: SANGER: Inhibition of human RVH-421 cell growth in a cell viability assay.

SBC-5 = assay: cells; assay type: functional, cell-based, Homo sapiens; details: Homo sapiens, SBC-5;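 also: cell viability assay read-out, IC50 is the concentration that inhibits growth of the cells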
Description: SANGER: Inhibition of human SBC-5 cell growth in a cell viability assay.

SCC-25 = assay: cells; assay type: functional, cell-based, Homo sapiens; details: Homo sapiens, SCC-25;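 also: growth inhibition of SCC-25 cells, measured with a cell viability assay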
Description: SANGER: Inhibition of human SCC-25 cell growth in a cell viability assay.

SCC-9 = assay: cells; assay type: functional, cell-based, Homo sapiens; details: Homo sapiens, SCC-9;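 also: Read-out is a cell viability assay, with values giving inhibition of cell growth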
Description: SANGER: Inhibition of human SCC-9 cell growth in a cell viability assay.

SJRH30 = assay: cells; assay type: functional, cell-based, Homo sapiens; details: Homo sapiens, SJRH30;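 also: growth inhibition of human SJRH30 cells, read out with a cell viability assay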
Description: SANGER: Inhibition of human SJRH30 cell growth in a cell viability assay.

SU-DHL-1 = assay: SANGER: Inhibition of human SU-DHL-1 cell growth in a cell viability assay.; assay type: functional, cell-based; details: Homo sapiens, SU-DHL-1
SW1088 = assay: cells; assay type: functional, cell-based, Homo sapiens; details: Homo sapiens, SW1088;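 also: growth inhibition of human SW1088 cells, read out by a cell viability assay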
Description: SANGER: Inhibition of human SW1088 cell growth in a cell viability assay.

SW1783 = assay: cells; assay type: functional, cell-based, Homo sapiens; details: Homo sapiens, SW1783
Description: SANGER: Inhibition of human SW1783 cell growth in a cell viability assay.

SAOS-2 = assay: cells; assay type: functional, cell-based, Homo sapiens; details: Homo sapiens, SAOS-2;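 also: growth inhibition of human Saos-2 cells determined by a cell viability assay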
Description: SANGER: Inhibition of human Saos-2 cell growth in a cell viability assay.

769-P = assay: cells; assay type: functional, cell-based, Homo sapiens; details: Homo sapiens, 769-P
Description: SANGER: Inhibition of human 769-P cell growth in a cell viability assay.

786-0 = assay: cells; assay type: functional, cell-based, Homo sapiens; details: Homo sapiens
Description: SANGER: Inhibition of human 786-0 cell growth in a cell viability assay.

CAL-12T = assay: cells; assay type: functional, cell-based, Homo sapiens; details: Homo sapiens, CAL-12T;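 also: growth inhibition of human CAL-12T cells, read out with a cell viability assay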
Description: SANGER: Inhibition of human CAL-12T cell growth in a cell viability assay.

CAL-51 = assay: cells; assay type: functional, cell-based, Homo sapiens; details: Homo sapiens, CAL-51;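 also: human CAL-51 cell line, growth inhibition read out via a cell viability assay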
Description: SANGER: Inhibition of human CAL-51 cell growth in a cell viability assay.

TE-15 = assay: cells; assay type: functional, cell-based, Homo sapiens; details: Homo sapiens, TE-15;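 also: cell viability readout of growth inhibition in TE-15 cells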
Description: SANGER: Inhibition of human TE-15 cell growth in a cell viability assay.

TE-441-T = assay: cells; assay type: functional, cell-based, Homo sapiens; details: Homo sapiens, TE-441-T
Description: SANGER: Inhibition of human TE-441-T cell growth in a cell viability assay.

U-698-M = assay: cells; assay type: functional, cell-based, Homo sapiens; details: Homo sapiens, U-698-M
Description: SANGER: Inhibition of human U-698-M cell growth in a cell viability assay.

COC1=CC(c2cc3ccccc3[nH]2)=N/C1=C\c1[nH]c(C)cc1C [OBATOCLAX MESYLATE]
IC50 (COLO-741): 316 nM | IC50 (DMS-273): 28.5 nM | IC50 (GCT): 2590 nM | IC50 (H4): 1150 nM | IC50 (HCC1419): 1830 nM | IC50 (HCC1569): 18 nM | IC50 (HCC1954): 5.86 µM | IC50 (HSC-2): 24.7 nM | IC50 (IMR-5): 32.4 nM | IC50 (KARPAS-422): 166 nM | IC50 (KYSE-150 cell line): 40.1 nM | IC50 (KYSE-410): 98 nM | IC50 (MDA-MB-361): 998 nM | IC50 (MKN-28): 177 nM | IC50 (NCI-H2342): 51.2 nM | IC50 (NCI-H28): 741 nM | IC50 (NCI-H524): 9590 nM | IC50 (NCI-H661): 1300 nM | IC50 (NCI-H719): 4.15 µM | IC50 (NCI-H889): > 16 µM | IC50 (OAW-42): 215 nM | IC50 (OVCAR-8): 31.1 nM | IC50 (RERF-LC-MS): 1060 nM | IC50 (RMG-I): 782 nM | IC50 (RPMI-2650): 23 nM | IC50 (RT-112): 666 nM | IC50 (RVH-421): 16.7 nM | IC50 (SBC-5): 212 nM | IC50 (SCC-25): 44.9 nM | IC50 (SCC-9): 1240 nM | IC50 (SJRH30): 321 nM | IC50 (SU-DHL-1): 1250 nM | IC50 (SW1088): 2780 nM | IC50 (SW1783): 193 nM | IC50 (SAOS-2): 246 nM | IC50 (769-P): < 62.5 nM | IC50 (786-0): < 62.5 nM | IC50 (CAL-12T): < 62.5 nM | IC50 (CAL-51): 40 nM | IC50 (TE-15): 203 nM | IC50 (TE-441-T): 1.43 µM | IC50 (U-698-M): 0.0941 µM

CCN(CC)CCNC(=O)c1c(C)[nH]c(/C=C2\C(=O)Nc3ccc(F)cc32)c1C [SUNITINIB]
IC50 (IMR-5): 7550 nM | IC50 (KARPAS-422): 7570 nM | IC50 (NCI-H524): > 8000 nM | IC50 (NCI-H719): > 8 µM | IC50 (NCI-H889): > 8 µM | IC50 (SU-DHL-1): 4800 nM | IC50 (TE-15): 508 nM | IC50 (TE-441-T): > 8 µM | IC50 (U-698-M): > 8 µM

COc1cc(N2CCN(C)CC2)ccc1Nc1ncc2c(n1)N(C)c1ccccc1C(=O)N2C
IC50 (IMR-5): 6350 nM | IC50 (KARPAS-422): > 8000 nM | IC50 (NCI-H524): > 8000 nM | IC50 (NCI-H719): > 8 µM | IC50 (NCI-H889): > 8 µM | IC50 (SU-DHL-1): > 8000 nM | IC50 (TE-15): > 8000 nM | IC50 (TE-441-T): > 8 µM | IC50 (U-698-M): > 8 µM

OCCCNc1cc(-c2ccnc(Nc3cccc(Cl)c3)n2)ccn1
IC50 (IMR-5): 124 nM | IC50 (KARPAS-422): 57.2 nM | IC50 (NCI-H524): > 256 nM | IC50 (NCI-H719): > 0.256 µM | IC50 (NCI-H889): > 0.256 µM | IC50 (SU-DHL-1): 211 nM | IC50 (TE-15): 39.4 nM | IC50 (TE-441-T): 0.0384 µM | IC50 (U-698-M): > 0.256 µM

COc1cc2ncn(-c3cc(OCc4ccccc4C(F)(F)F)c(C(N)=O)s3)c2cc1OC [GW843682X]
IC50 (IMR-5): 35.4 nM | IC50 (KARPAS-422): 210 nM | IC50 (NCI-H524): 65.4 nM | IC50 (NCI-H719): > 0.256 µM | IC50 (NCI-H889): 0.0924 µM | IC50 (SU-DHL-1): 94.3 nM | IC50 (TE-15): 10.8 nM | IC50 (TE-441-T): > 0.256 µM | IC50 (U-698-M): > 0.256 µM

CC(=O)O[C@H]1C(=O)[C@@]2(C)[C@H]([C@H](OC(=O)c3ccccc3)[C@]3(O)C[C@H](OC(=O)[C@H](O)[C@@H](NC(=O)c4ccccc4)c4ccccc4)C(C)=C1C3(C)C)[C@]1(OC(C)=O)CO[C@@H]1C[C@@H]2O [PACLITAXEL]
IC50 (IMR-5): 4.5 nM | IC50 (KARPAS-422): 56.5 nM | IC50 (NCI-H524): 35.3 nM | IC50 (NCI-H719): > 0.102 µM | IC50 (NCI-H889): 0.0559 µM | IC50 (SU-DHL-1): > 102 nM | IC50 (TE-15): 0.287 nM | IC50 (TE-441-T): > 0.102 µM | IC50 (U-698-M): > 0.102 µM

COc1cc(-c2nn([C@H]3CC[C@H](N4CCN(C(C)=O)CC4)CC3)c3ncnc(N)c23)ccc1NC(=O)c1cc2ccccc2n1C
IC50 (IMR-5): > 5120 nM | IC50 (KARPAS-422): > 5120 nM | IC50 (NCI-H524): > 5120 nM | IC50 (NCI-H719): > 5.12 µM | IC50 (NCI-H889): > 5.12 µM | IC50 (SU-DHL-1): > 5120 nM | IC50 (TE-15): 279 nM | IC50 (TE-441-T): > 5.12 µM | IC50 (U-698-M): > 5.12 µM

CC[C@H](CO)Nc1nc(NCc2ccccc2)c2ncn(C(C)C)c2n1 [SELICICLIB]
IC50 (IMR-5): > 16000 nM | IC50 (KARPAS-422): 9960 nM | IC50 (NCI-H524): > 16000 nM | IC50 (NCI-H719): > 16 µM | IC50 (NCI-H889): > 16 µM | IC50 (SU-DHL-1): > 16000 nM | IC50 (TE-15): > 16000 nM | IC50 (TE-441-T): > 16 µM | IC50 (U-698-M): > 16 µM

N[C@@H](CSC(c1ccccc1)(c1ccccc1)c1ccccc1)C(=O)O [S-TRITYL-L-CYSTEINE]
IC50 (IMR-5): 1270 nM | IC50 (KARPAS-422): 1200 nM | IC50 (NCI-H524): 1030 nM | IC50 (NCI-H719): > 5.12 µM | IC50 (NCI-H889): > 5.12 µM | IC50 (SU-DHL-1): > 5120 nM | IC50 (TE-15): 1020 nM | IC50 (TE-441-T): 4.79 µM | IC50 (U-698-M): > 5.12 µM

Cc1ccc(-c2c(C(=O)CCl)n(CCCO)c3ncnc(N)c23)cc1
IC50 (IMR-5): > 4000 nM | IC50 (KARPAS-422): > 4000 nM | IC50 (NCI-H524): > 4000 nM | IC50 (NCI-H719): > 4 µM | IC50 (NCI-H889): > 4 µM | IC50 (SU-DHL-1): > 4000 nM | IC50 (TE-15): 1820 nM | IC50 (TE-441-T): > 4 µM | IC50 (U-698-M): > 4 µM

C#Cc1cccc(Nc2ncnc3cc(OCCOC)c(OCCOC)cc23)c1 [ERLOTINIB]
IC50 (IMR-5): > 2000 nM | IC50 (KARPAS-422): > 2000 nM | IC50 (NCI-H524): > 2000 nM | IC50 (NCI-H719): > 2 µM | IC50 (SU-DHL-1): > 2000 nM | IC50 (TE-15): > 2000 nM | IC50 (TE-441-T): > 2 µM | IC50 (U-698-M): > 2 µM
